{
  "source": "patent US20230270802A1",
  "about": "“ANTIVIRAL PHARMACEUTICAL COMPOSITION” (GSK CONSUMER HEALTHCARE SARL, priority 2020, published 2023)",
  "type_in_all_cases": "cell-based",
  "key": {"[1]": {"tested_on": "MucilAir nasal human 3D epithelial model", "experiment": "Trans-epithelial electronic resistance (TEER), Example 1", "conditions": "all measured timepoints", "text": "Trans-epithelial electronic resistance (TEER) is a dynamic parameter that reflects the state of epithelia and is typically between 200 to 600 Ω.cm^2. An increase of the TEER value reflects a blockage of the ion channel activities of the MucilAir cell culture. A notable decrease of the TEER values, but with the value still above 100 Ω.cm^2 can be observed in certain cases and indicates an activation of the ion channels. Disruption of cellular junction or holes in the epithelia result in TEER values below 100 Ω.cm^2. When an epithelium is damaged, a decrease of TEER would be associated with an increase of LDH release or a decrease of the cell viability. In this example, TEER was measured after addition of 200 µl of culture medium to the apical compartment of the inserts (i.e. during the washing step). TEER was measured with an EVOMX volt-ohm-meter (World Precision Instruments UK, Stevenage) for each condition. Resistance values (Q) were converted to TEER (Ω.cm^2) using the following formula: TEER (Ω.cm^2) = (resistance value (Ω) - 100 (Ω)) x 0.33 (cm^2), where 100 Q is the resistance of the membrane and 0.33 cm^2 is the total surface of the epithelium in one insert. The TEER measurement was conducted as follows: 200µl of culture medium was added on apical surface of each insert. The EVOMX was turned on. […] Then, the resistance (Q) was measured with the EVOMX in the Ohms measurement function."}, "[2]": {"tested_on": "MucilAir nasal human 3D epithelial model", "experiment": "Cilia beating frequency (CBF), Example 1", "conditions": "T96h, OC43 infected inserts; Mock 8.5 Hz", "experimental": "Cilia beating frequency (CBF) is a parameter that indicates if the nasal epithelia is healthy and carrying out its physiologic function of mucus transport. CBF was measured by a dedicated setup for this purpose. The system consists of three parts: a Sony XCD V60 camera connected to an Olympus BX51 microscope, a PCI card and a specific package of software. The cilia beating frequency is expressed in Hz. […] CBF was then calculated using relevant software. It should be pointed out that CBF values may be subject to fluctuations due to parameters such as temperature, mucus viscosity or liquid applied on the apical surface of the cell model and observed values should be compared to a control condition in each experiment.\nAt T96h, the ciliary beating frequency (CBF) and the mucociliary clearance (MCC) of all inserts were measured. 200 µl of culture medium was added apically to all inserts and inserts were let sit for 20 minutes at 34° C. During this time, TEER of all inserts was measured. This apical washing liquid was then removed and was stored at -80° C. until the virus copy number was determined. The basal culture medium was removed and stored. 50 µl of the basal culture medium of all inserts was used for the LDH assay."}, "human coronavirus OC43": {"tested_on": "human coronavirus OC43", "experiment": "OC43 viral genome copy number in MucilAir nasal epithelium, Example 1", "conditions": "for Mean viral genome copy number, Log 10 ((Copies/ml) + 1): apical wash, 0.00 = below detection limit"}},
  "data": [
    {"compound": "Polyethylene glycol tert-octylphenyl ether [positive controls for cytotoxicity]", "values": [
      {"measurement": "TEER", "setting": "[1]", "value": "below 100 Ω.cm^2"}
    ]},
    {"compound": "N#C[C@@]1(c2ccc3c(N)ncnn23)O[C@H](CO)[C@@H](O)[C@H]1O", "note": "[Positive antiviral control, GS-441524]", "values": [
      {"measurement": "Cilia beating frequency (CBF)", "setting": "[2]", "value": "about 15 Hz"},
      {"measurement": "Mean viral genome copy number, Log 10 ((Copies/ml) + 1)", "setting": "human coronavirus OC43; T4h", "value": "0.00 Log 10 ((Copies/ml) + 1)"},
      {"measurement": "Mean viral genome copy number, Log 10 ((Copies/ml) + 1)", "setting": "human coronavirus OC43; T24h", "value": "0.00 Log 10 ((Copies/ml) + 1)"},
      {"measurement": "Mean viral genome copy number, Log 10 ((Copies/ml) + 1)", "setting": "human coronavirus OC43; T48h", "value": "0.00 Log 10 ((Copies/ml) + 1)"},
      {"measurement": "Mean viral genome copy number, Log 10 ((Copies/ml) + 1)", "setting": "human coronavirus OC43; T72h", "value": "5.21 Log 10 ((Copies/ml) + 1)"},
      {"measurement": "Mean viral genome copy number, Log 10 ((Copies/ml) + 1)", "setting": "human coronavirus OC43; T96h", "value": "4.69 Log 10 ((Copies/ml) + 1)"},
      {"measurement": "Apical genome copy number in comparison to negative control", "setting": "human coronavirus OC43; each timepoint T24h - T96h", "value": "statistically significantly reduced"}
    ]}
  ]
}
